From paper PMC11790914, “Chemogenomics for steroid hormone receptors (NR3)” (Communications Chemistry, 2025)
“And” between values parts separate entries of the source, which are not always exact repeats. Identical values can stand only once. Like-named read-outs stand apart in the source and are kept apart here.

Legend:
CSNK1D = molecular target: T1, CSNK1D (Homo sapiens, UniProt P48730); assay: Liability panel screening by DSF: CSNK1D; assay type: binding; settings: read-out: Mean ΔTM CSNK1D
T1 construct: made in house
T1 sequence (P48730 whole entry, species assumed): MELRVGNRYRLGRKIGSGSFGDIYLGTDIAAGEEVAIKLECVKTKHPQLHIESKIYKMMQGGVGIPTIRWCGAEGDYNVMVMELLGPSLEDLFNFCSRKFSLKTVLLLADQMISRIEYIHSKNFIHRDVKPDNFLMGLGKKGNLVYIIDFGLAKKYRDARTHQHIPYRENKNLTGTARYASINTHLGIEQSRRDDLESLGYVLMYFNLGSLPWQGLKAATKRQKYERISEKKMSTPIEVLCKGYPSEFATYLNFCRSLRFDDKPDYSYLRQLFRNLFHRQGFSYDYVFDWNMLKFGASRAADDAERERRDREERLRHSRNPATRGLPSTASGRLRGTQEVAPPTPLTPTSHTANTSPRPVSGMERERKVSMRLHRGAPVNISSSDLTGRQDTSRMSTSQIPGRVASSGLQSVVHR
Protocol: (§1) Reference ligands are listed in the methods section.
(§2) In-house produced recombinantly expressed proteins[62] of the liability panel targets were diluted in a buffer containing 10 mM HEPES (pH 7.5) and 500 mM NaCl to a concentration of 2 µM. SYPRO Orange (Invitrogen, Carlsbad, California, USA; #S6650) as a fluorescence probe was added at a 1:1000 dilution to the proteins. […] Temperature-dependent unfolding profiles were measured on a QuantStudio™ 5 real-time PCR machine (Thermo Fisher Scientific, Waltham, Massachusetts, USA; #A28140). […] The temperature was increased 3 °C per minute to a maximum temperature of 85 °C. Experiments were run as technical duplicates. […] Data were analyzed with the internal Thermal Shift Software (version 1.4, Thermo Fisher Scientific) using the Boltzmann equitation to determine the inflection point of the transition curve. Differences in melting temperature are given as ∆Tm in K. […]
(§3) scanning fluorimetry (DSF).
(§4) a concentration of 20 µM.

BRD4 = molecular target: T2, BRD4 (Homo sapiens, UniProt O60885); assay: Liability panel screening by DSF: BRD4; assay type: binding; settings: read-out: Mean ΔTM BRD4
T2 construct: This panel comprised ten highly ligandable kinases and bromodomains; made in house
Protocol: as §1, §2, §3, §4

BRPF1 = molecular target: T3, BRPF1 (Homo sapiens, UniProt P55201); assay: Liability panel screening by DSF: BRPF1; assay type: binding; settings: read-out: Mean ΔTM BRPF1
T3 construct: This panel comprised ten highly ligandable kinases and bromodomains; made in house
T3 sequence (P55201 628-732 limits assumed): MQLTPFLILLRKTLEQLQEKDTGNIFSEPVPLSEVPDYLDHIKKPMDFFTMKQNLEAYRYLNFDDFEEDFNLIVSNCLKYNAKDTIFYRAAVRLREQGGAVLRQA
Protocol: as §1, §2, §3, §4

ABL1 = molecular target: T4, ABL1 (Homo sapiens, UniProt P00519); assay: Liability panel screening by DSF: ABL1; assay type: binding; settings: read-out: Mean ΔTM ABL1
T4 construct: made in house
T4 sequence (P00519 whole entry, species assumed): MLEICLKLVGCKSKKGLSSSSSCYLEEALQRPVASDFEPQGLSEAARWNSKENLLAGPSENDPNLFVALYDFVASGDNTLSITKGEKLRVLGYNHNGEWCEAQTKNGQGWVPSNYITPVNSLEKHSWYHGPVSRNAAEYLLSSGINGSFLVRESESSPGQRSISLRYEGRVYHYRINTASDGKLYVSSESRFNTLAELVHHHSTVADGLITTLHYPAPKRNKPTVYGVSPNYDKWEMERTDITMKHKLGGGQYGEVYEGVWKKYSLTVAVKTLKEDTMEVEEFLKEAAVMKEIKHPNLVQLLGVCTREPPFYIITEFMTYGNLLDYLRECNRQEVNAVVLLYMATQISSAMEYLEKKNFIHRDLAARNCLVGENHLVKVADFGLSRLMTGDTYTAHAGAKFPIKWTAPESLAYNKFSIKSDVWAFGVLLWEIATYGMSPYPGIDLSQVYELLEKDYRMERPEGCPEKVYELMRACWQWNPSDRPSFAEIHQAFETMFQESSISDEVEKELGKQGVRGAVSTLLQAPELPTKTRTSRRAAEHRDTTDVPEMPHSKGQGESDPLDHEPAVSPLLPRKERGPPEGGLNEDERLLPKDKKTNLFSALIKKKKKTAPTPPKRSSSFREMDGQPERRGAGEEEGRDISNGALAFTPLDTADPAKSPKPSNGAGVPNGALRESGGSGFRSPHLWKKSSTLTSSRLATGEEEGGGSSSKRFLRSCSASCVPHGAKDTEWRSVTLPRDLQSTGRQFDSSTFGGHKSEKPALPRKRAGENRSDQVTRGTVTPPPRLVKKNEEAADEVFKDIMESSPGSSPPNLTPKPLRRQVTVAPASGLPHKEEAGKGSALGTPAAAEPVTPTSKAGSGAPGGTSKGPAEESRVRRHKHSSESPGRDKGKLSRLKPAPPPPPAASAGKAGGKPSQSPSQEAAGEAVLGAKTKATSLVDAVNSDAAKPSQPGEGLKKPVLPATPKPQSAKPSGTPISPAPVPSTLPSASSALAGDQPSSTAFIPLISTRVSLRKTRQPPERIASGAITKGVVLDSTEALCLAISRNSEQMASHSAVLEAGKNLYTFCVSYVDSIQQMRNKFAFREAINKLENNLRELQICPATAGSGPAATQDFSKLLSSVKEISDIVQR
Protocol: as §1, §2, §3, §4

HEK293T cells [1] = assay: Cytotoxicity: growth-rate (change in confluence over 24 h); settings: 1 µM, normalized to 0.1% DMSO control, single replicates (n=1...)
AURKA = molecular target: T5, AURKA (Homo sapiens, UniProt O14965); assay: Liability panel screening by DSF: AURKA; assay type: binding; settings: read-out: Mean ΔTM AURKA
T5 construct: made in house
T5 sequence (O14965 1-403): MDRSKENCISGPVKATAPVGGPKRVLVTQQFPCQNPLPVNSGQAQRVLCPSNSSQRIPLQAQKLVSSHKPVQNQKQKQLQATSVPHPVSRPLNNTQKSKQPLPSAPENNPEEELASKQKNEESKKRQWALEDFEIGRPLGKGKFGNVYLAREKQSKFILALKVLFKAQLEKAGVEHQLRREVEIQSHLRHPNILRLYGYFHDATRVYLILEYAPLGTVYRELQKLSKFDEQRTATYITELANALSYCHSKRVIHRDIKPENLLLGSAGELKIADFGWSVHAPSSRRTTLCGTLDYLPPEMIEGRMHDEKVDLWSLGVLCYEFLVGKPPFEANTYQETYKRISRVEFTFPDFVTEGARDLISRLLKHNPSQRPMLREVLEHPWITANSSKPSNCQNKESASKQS
Protocol: as §1, §2, §3, §4

[2] = test system: NF-κB activity in HEK293 NF-κB reporter cells; assay: NF-kB activity assay (GFP reporter, ionomycin/PMA); assay type: cell-based; settings: for Mean NFκB response: n=3; for NF-κB activity (inflammatory response to ionomycin/PMA): HEK293 NF-κB reporter cells, compounds at recommended concentrations, imaged over 24 h, n = 3
Protocol: Fig. 6 Application of the NR3 CG set.
After 24 h, cells were incubated with the test compounds solubilized with 0.1% DMSO in the same medium without puromycin. After 4 h incubation, ionomycin (100 ng/mL) and phorbol-12-myristat-13-acetate (PMA, 10 ng/mL) was added, and the cells were imaged for confluence and GFP expression every 90 min. over 24 h using a Tecan SPARK Cyto (Tecan). The number of GFP expressing cells was normalized to confluence in each sample. Each sample was repeated in three biologically independent experiments.

HEK293T cells [3] = assay: Cytotoxicity: necrosis induction (red fluorescent dye for permeable plasma membranes); assay type: cell-based; settings: 1 µM, 24 h, necrotic cell count normalized to 0.1% DMSO, single replicates;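 also: compounds applied in DMEM high glucose with 0.1% FCS and 0.1% DMSO, necrotic HEK293T cells counted by red staining of cells whose plasma membranes had become permeable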
TRIM24 = molecular target: T6, TRIM24 (Homo sapiens, UniProt O15164); assay: Liability panel screening by DSF: TRIM24; assay type: binding; settings: read-out: Mean ΔTM TRIM24
T6 construct: This panel comprised ten highly ligandable kinases and bromodomains; made in house
T6 sequence (O15164 899-1004 limits assumed): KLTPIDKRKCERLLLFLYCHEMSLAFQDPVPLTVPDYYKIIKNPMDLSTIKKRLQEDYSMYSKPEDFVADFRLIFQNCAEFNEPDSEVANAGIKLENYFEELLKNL
Protocol: as §1, §2, §3, §4

MAPK1 = molecular target: T7, MAPK1 (Homo sapiens, UniProt P28482); assay: Liability panel screening by DSF: MAPK1; assay type: binding; settings: read-out: Mean ΔTM MAPK1
T7 construct: made in house
T7 sequence (P28482 whole entry, species assumed): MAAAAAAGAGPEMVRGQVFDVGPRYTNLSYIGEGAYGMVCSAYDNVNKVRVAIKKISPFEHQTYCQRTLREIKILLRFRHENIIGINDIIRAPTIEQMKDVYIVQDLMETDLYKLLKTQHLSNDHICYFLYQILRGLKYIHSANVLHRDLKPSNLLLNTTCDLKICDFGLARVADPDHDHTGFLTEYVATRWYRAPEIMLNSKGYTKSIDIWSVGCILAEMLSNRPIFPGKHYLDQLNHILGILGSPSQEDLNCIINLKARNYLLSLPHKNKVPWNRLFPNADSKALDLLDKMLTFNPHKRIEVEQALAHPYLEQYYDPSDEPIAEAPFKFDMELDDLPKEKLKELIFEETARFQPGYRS
Protocol: as §1, §2, §3, §4

CDK2 = molecular target: T8, CDK2 (Homo sapiens, UniProt P24941); assay: Liability panel screening by DSF: CDK2; assay type: binding; settings: read-out: Mean ΔTM CDK2
T8 construct: made in house
Protocol: as §1, §2, §3, §4

FGFR3 = molecular target: T9, FGFR3 (Homo sapiens, UniProt P22607); assay: Liability panel screening by DSF: FGFR3; assay type: binding; settings: read-out: Mean ΔTM FGFR3
T9 construct: made in house
T9 sequence (P22607 23-806, species assumed): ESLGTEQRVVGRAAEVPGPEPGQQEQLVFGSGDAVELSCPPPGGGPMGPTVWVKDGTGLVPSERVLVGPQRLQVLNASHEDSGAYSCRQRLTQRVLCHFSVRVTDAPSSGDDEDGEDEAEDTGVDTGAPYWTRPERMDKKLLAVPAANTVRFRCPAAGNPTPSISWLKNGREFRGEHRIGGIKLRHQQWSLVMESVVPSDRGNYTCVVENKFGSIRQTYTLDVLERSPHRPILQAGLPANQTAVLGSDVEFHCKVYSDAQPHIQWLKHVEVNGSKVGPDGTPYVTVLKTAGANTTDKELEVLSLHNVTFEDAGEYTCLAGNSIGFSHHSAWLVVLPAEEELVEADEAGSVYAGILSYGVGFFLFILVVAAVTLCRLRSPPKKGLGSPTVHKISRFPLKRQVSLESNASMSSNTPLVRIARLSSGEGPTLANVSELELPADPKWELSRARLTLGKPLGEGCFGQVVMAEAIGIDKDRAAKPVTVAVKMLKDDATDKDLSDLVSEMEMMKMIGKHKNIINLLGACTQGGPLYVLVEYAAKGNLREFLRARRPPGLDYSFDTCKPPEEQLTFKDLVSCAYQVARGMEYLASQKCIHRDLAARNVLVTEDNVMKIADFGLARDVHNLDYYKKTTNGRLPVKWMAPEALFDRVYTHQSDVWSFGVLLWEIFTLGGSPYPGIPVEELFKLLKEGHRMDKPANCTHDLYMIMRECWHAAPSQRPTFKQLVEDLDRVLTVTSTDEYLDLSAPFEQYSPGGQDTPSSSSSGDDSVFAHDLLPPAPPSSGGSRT
Protocol: as §1, §2, §3, §4

HEK293T cells [4] = assay: Cytotoxicity: metabolic activity (WST-8 / CCK-8 assay); settings: 1 µM; HEK293T, 24 h; WST-8; normalized to 0.1% DMSO; single replicates
GSK3B = molecular target: T10, GSK3B (Homo sapiens, UniProt P49841); assay: Liability panel screening by DSF: GSK3B; assay type: binding; settings: read-out: Mean ΔTM GSK3B
T10 construct: made in house
T10 sequence (P49841 whole entry, species assumed): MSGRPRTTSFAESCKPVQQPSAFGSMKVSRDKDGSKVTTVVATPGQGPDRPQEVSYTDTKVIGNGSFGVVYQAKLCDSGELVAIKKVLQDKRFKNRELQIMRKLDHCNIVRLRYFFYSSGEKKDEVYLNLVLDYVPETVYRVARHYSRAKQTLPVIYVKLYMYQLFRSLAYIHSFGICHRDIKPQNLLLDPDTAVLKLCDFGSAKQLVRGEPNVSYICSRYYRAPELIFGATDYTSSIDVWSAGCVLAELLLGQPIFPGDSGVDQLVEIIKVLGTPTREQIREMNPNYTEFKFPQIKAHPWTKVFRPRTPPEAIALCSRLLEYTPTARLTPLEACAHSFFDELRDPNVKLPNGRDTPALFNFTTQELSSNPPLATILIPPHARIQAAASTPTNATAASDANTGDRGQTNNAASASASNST

[5] = test system: ATF6 activity in Hela ATF6 reporter cells; assay: Endoplasmic reticulum stress assay (ATF6 Renilla luciferase reporter, tunicamycin); assay type: cell-based; settings: for ATF6 activity (tunicamycin-induced endoplasmic reticulum stress): Hela ATF6 reporter cells, tunicamycin 100 ng/mL, 18 h, compounds at recommended concentrations, n = 5
Protocol: After 24 h, cells were incubated with the test compounds solubilized with 0.1% DMSO in the same medium without puromycin. After 4 h incubation, tunicamycin (100 ng/mL) was added. After another 18 h incubation, cells were assayed for renilla luminescence using DualGlo reagent (Promega) on a Tecan SPARK Cyto (Tecan). Test samples were normalized to the 0.1% DMSO control. Each sample was repeated in five biologically independent experiments.

HEK293T cells [6] = assay: Cytotoxicity: apoptosis induction (caspase-3/7 DEVD fluorogenic DNA dye); settings: 1 µM; HEK293T, 24 h; apoptotic cell count normalized to 0.1% DMSO; single replicates

SMILES | Growth rate [GR] (HEK293T cells [1]) | Mean NFκB response ([2]; 1 µM, 1,5 h) | Mean NFκB response ([2]; 1 µM, 4,5 h) | Mean NFκB response ([2]; 1 µM, 7,5 h) | Mean NFκB response ([2]; 1 µM, 10,5 h) | Mean NFκB response ([2]; 1 µM, 13,5 h) | Mean NFκB response ([2]; 1 µM, 16,6 h) | Mean NFκB response ([2]; 1 µM, 19,5 h) | Mean NFκB response ([2]; 1 µM, 22,5 h) | Mean NFκB response ([2]; 1 µM, 3 h) | Mean NFκB response ([2]; 1 µM, 6 h) | Mean NFκB response ([2]; 1 µM, 9 h) | Mean NFκB response ([2]; 1 µM, 12 h) | Mean NFκB response ([2]; 1 µM, 15 h) | Mean NFκB response ([2]; 1 µM, 18 h) | Mean NFκB response ([2]; 1 µM, 21 h) | Mean NFκB response ([2]; 1 µM, 24 h) | NF-κB activity (inflammatory response to ionomycin/PMA) [2] | Necrosis induction [NI] (HEK293T cells [3]) | Metabolic activity [MA] (HEK293T cells [4]) | other results
O=S(=O)(Cc1ccccc1)Nc1ccc(-c2ccc3c(cnn3-c3ccc(F)cc3)c2)c(C(F)(F)F)c1 [GSK9027] | 0.54 and 0.80 and 0.72 and 0.98 and 0.70 and 0.66 and 0.84 and 1.89 and 2.05 and 4.10 | 2917.80 GFP+-cells/confluence ∙ 1000 | 3437.70 GFP+-cells/confluence ∙ 1000 | 4957.90 GFP+-cells/confluence ∙ 1000 | 8098.89 GFP+-cells/confluence ∙ 1000 | 11113.03 GFP+-cells/confluence ∙ 1000 | 13521.21 GFP+-cells/confluence ∙ 1000 | 14898.72 GFP+-cells/confluence ∙ 1000 | 15985.14 GFP+-cells/confluence ∙ 1000 | 2869.62 GFP+-cells/confluence ∙ 1000 | 4105.89 GFP+-cells/confluence ∙ 1000 | 6294.49 GFP+-cells/confluence ∙ 1000 | 9593.56 GFP+-cells/confluence ∙ 1000 | 12593.25 GFP+-cells/confluence ∙ 1000 | 14186.97 GFP+-cells/confluence ∙ 1000 | 15313.70 GFP+-cells/confluence ∙ 1000 | 16630.14 GFP+-cells/confluence ∙ 1000 | consistently delayed and strongly diminished NF-κB activity | 0.93 and 0.78 and 0.76 and 1.05 | 1.03 and 1.01 (3×) and 0.96 and 1.00 and 1.18 and 1.15 | ΔTm at 20 µM (CSNK1D): -1.92 °C; ΔTm at 20 µM (BRD4): 1.58 °C; ΔTm at 20 µM (BRPF1): 1.21 °C; ΔTm at 20 µM (ABL1): 1.8 °C; ΔTm at 20 µM (AURKA): 1.2 °C; ΔTm at 20 µM (TRIM24): 1.36 °C; ΔTm at 20 µM (MAPK1): -2.07 °C; ΔTm at 20 µM (CDK2): 0.1 °C; ΔTm at 20 µM (FGFR3): -0.29 °C; ΔTm at 20 µM (GSK3B): 1.24 °C; ATF6 activity (tunicamycin-induced endoplasmic reticulum stress) [5]: Consistently weaker ATF6 activity; activity at 1 µM ([5]; Homo sapiens, HeLa, 1 µM, single replicates n=1 to n=5, read-out: ER stress [rel. ATF6 activity]): 76%; Apoptosis induction [AI] (HEK293T cells [6]): 0.65 and 1.04 and 0.83 and 0.94 and 0.36 and 0.86
N#CC(Cc1ccc(O)cc1)c1ccc(O)cc1 (centres unmarked) [Diarylpropionitrile] | 0.79 (2×) and 0.00 (2×) and 0.84 and 1.00 and 0.91 and 0.88 and 1.61 and 5.04 | 3165.75 GFP+-cells/confluence ∙ 1000 | 4108.72 GFP+-cells/confluence ∙ 1000 | 9286.59 GFP+-cells/confluence ∙ 1000 | 18231.50 GFP+-cells/confluence ∙ 1000 | 25916.56 GFP+-cells/confluence ∙ 1000 | 31500.03 GFP+-cells/confluence ∙ 1000 | 35046.16 GFP+-cells/confluence ∙ 1000 | 38151.13 GFP+-cells/confluence ∙ 1000 | 3363.39 GFP+-cells/confluence ∙ 1000 | 5664.74 GFP+-cells/confluence ∙ 1000 | 14005.24 GFP+-cells/confluence ∙ 1000 | 22519.63 GFP+-cells/confluence ∙ 1000 | 29221.60 GFP+-cells/confluence ∙ 1000 | 33392.36 GFP+-cells/confluence ∙ 1000 | 36386.11 GFP+-cells/confluence ∙ 1000 | 39415.66 GFP+-cells/confluence ∙ 1000 | no impact on NF-κB activity | 1.10 and 0.85 and 0.90 and 1.44 | 1.05 and 0.99 and 0.90 and 1.01 and 1.03 and 0.93 and 1.00 and 1.10 | ΔTm at 20 µM (CSNK1D; DSF, 20 µM, n=2): 0.0747 °C; ΔTm at 20 µM (BRD4; DSF, 20 µM, n=2): 0.26 °C; ΔTm at 20 µM (BRPF1; DSF, 20 µM, n=2): -1.46 °C; ΔTm at 20 µM (ABL1; DSF, 20 µM, n=2): 0.17 °C; ΔTm at 20 µM (AURKA; DSF, 20 µM, n=2): 0.16 °C; ΔTm at 20 µM (TRIM24; DSF, 20 µM, n=2): 0.03 °C; ΔTm at 20 µM (MAPK1; DSF, 20 µM, n=2): 0.0328 °C; ΔTm at 20 µM (CDK2; DSF, 20 µM, n=2): 0.74 °C; ΔTm at 20 µM (FGFR3; DSF, 20 µM, n=2): 0.51 °C; ΔTm at 20 µM (GSK3B; DSF, 20 µM, n=2): 0.0529 °C; ATF6 activity (tunicamycin-induced endoplasmic reticulum stress) [5]: failed to reduce ATF6 activity; Apoptosis induction [AI] (HEK293T cells [6]): 0.70 and 1.46 and 0.65 and 1.11 and 1.49 and 0.58
